# Laboratory results reported in paper PMC4447944 (The Journal of Biological Chemistry, 2015).
# Tests used:
# hPYK2 = target: T1, hPYK2 (Homo sapiens, UniProt Q14289); experiment: KINOMEscan; assay type: binding
# T1 construct: purchased DiscoverX
# hCAMK2B = target: T2, hCAMK2B (Homo sapiens, UniProt Q13554); experiment: KINOMEscan; assay type: binding
# T2 construct: purchased DiscoverX
# hH1 = hH1 (Homo sapiens, UniProt P35367); experiment: Ca Mobilization Agonist (Eurofins-CEREP); settings: @ 13.3 μM
# hINSR = target: T3, hINSR (Homo sapiens, UniProt P06213); experiment: KINOMEscan; assay type: binding
# T3 construct: purchased DiscoverX (KINOMEscan panel)
# hTGFBR1 = target: T4, hTGFBR1 (Homo sapiens, UniProt P36897); experiment: KINOMEscan; assay type: binding
# T4 construct: purchased DiscoverX
# hSIK2 = target: T5, hSIK2 (Homo sapiens, UniProt Q9H0K1); experiment: KINOMEscan; assay type: binding
# T5 construct: purchased DiscoverX (KINOMEscan platform)
# hFLT3(K663Q) = target: T6, hFLT3(K663Q) (Homo sapiens, UniProt P36888, K663Q); experiment: KINOMEscan; assay type: binding
# T6 construct: purchased DiscoverX
# hERBB3 = target: T7, hERBB3 (Homo sapiens, UniProt P21860); experiment: KINOMEscan; assay type: binding
# T7 construct: purchased DiscoverX
# hLOK = target: T8, hLOK (Homo sapiens, UniProt O94804); experiment: KINOMEscan; assay type: binding
# T8 construct: purchased DiscoverX (KINOMEscan platform)
# hCAMKK2 = target: T9, hCAMKK2 (Homo sapiens, UniProt Q96RR4); experiment: KINOMEscan; assay type: binding
# T9 construct: purchased DiscoverX
# hITK = target: T10, hITK (Homo sapiens, UniProt Q08881); experiment: KINOMEscan; assay type: binding
# T10 construct: purchased DiscoverX (KINOMEscan panel)
# T10 sequence (Q08881 whole entry): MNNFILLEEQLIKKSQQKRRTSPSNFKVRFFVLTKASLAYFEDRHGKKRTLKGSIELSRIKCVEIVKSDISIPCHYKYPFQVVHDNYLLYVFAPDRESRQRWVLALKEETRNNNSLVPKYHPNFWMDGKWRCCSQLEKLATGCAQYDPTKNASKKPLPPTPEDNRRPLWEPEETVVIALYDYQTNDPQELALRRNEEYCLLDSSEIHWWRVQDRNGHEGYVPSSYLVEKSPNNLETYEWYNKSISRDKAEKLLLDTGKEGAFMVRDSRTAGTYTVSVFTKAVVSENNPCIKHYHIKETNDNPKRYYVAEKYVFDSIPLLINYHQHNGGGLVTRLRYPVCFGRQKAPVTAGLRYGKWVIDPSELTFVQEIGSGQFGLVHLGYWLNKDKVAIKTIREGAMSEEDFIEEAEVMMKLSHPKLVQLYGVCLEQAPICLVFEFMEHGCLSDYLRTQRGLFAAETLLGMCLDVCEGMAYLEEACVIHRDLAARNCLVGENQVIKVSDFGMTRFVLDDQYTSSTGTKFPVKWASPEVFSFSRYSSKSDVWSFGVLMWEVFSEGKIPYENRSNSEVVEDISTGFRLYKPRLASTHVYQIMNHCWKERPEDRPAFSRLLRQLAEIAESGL
# hALK = target: T11, hALK (Homo sapiens, UniProt Q9UM73); experiment: KINOMEscan; assay type: binding
# T11 construct: purchased DiscoverX
# hRARα = target: T12, hRARα (Homo sapiens, UniProt P10276); experiment: Nuclear hormone receptor assay (Eurofins-CEREP); settings: read-out: Relative IC50
# T12 construct: Eurofins-CEREP
# hACVRL1 = target: T13, hACVRL1 (Homo sapiens, UniProt P37023); experiment: KINOMEscan; assay type: binding
# T13 construct: purchased DiscoverX (KINOMEscan platform)
# T13 sequence (P37023 22-503): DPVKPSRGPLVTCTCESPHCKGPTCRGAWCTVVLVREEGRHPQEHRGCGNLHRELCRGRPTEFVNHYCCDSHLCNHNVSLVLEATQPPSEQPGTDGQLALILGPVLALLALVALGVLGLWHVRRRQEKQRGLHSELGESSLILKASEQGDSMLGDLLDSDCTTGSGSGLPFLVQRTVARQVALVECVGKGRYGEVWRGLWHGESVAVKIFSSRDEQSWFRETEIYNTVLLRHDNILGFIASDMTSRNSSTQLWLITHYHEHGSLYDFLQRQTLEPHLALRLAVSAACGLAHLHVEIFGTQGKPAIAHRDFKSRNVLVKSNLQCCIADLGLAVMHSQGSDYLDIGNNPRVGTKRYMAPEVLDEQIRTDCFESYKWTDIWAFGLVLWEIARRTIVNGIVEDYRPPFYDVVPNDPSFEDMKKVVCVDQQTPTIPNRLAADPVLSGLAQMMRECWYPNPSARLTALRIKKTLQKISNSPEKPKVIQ
# hLXRβ = target: T14, hLXRβ (Homo sapiens, UniProt P55055); experiment: Nuclear hormone receptor assay (Eurofins-CEREP); settings: read-out: Relative IC50
# T14 construct: Eurofins-CEREP
# [1] = target: T15, hTYK2(JH2Dom.-pseudokinase) (Homo sapiens, UniProt P29597); experiment: KINOMEscan; assay type: binding
# T15 construct: hTYK2(JH2Dom.-pseudokinase); purchased DiscoverX
# hMAP3K15 = target: T16, hMAP3K15 (Homo sapiens, UniProt Q6ZN16); experiment: KINOMEscan; assay type: binding
# T16 construct: purchased DiscoverX (KINOMEscan platform)
# hABL1(Q252H) = target: T17, hABL1(Q252H) (Homo sapiens, UniProt P00519, Q252H); experiment: KINOMEscan; assay type: binding
# T17 construct: purchased DiscoverX (KINOMEscan platform)
# hTRPM6 = target: T18, hTRPM6 (Homo sapiens, UniProt Q9BX84); experiment: KINOMEscan; assay type: binding
# T18 construct: purchased DiscoverX
# hERK8 = target: T19, hERK8 (Homo sapiens, UniProt Q8TD08); experiment: KINOMEscan; assay type: binding
# T19 construct: purchased DiscoverX
# hRIPK5 = target: T20, hRIPK5 (Homo sapiens, UniProt Q6XUX3); experiment: KINOMEscan; assay type: binding
# T20 construct: purchased DiscoverX (KINOMEscan platform)
# T20 sequence (Q6XUX3 whole entry): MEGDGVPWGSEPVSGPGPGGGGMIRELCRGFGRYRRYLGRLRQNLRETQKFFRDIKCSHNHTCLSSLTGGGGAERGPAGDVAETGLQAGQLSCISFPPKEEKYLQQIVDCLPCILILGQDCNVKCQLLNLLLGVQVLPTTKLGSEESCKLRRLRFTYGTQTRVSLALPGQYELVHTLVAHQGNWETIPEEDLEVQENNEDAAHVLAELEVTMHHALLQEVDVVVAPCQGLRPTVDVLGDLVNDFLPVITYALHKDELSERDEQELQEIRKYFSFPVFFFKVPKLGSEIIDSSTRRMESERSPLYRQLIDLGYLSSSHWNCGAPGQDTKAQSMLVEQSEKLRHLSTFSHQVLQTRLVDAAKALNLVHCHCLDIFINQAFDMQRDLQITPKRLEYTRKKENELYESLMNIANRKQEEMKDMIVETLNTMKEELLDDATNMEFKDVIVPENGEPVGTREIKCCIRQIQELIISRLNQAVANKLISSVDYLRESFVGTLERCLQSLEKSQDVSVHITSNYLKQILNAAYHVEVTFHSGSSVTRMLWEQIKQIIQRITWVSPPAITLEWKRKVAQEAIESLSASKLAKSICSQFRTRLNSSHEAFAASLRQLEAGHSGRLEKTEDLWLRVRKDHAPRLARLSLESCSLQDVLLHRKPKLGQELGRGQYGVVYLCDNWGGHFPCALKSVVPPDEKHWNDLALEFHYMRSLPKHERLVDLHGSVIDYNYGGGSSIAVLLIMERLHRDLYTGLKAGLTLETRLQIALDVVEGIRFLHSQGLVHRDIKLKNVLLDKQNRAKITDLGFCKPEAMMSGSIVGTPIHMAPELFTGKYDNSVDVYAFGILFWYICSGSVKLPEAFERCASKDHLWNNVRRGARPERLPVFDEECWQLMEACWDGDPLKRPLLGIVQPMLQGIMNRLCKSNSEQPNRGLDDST
# [2] = target: T21, hRPS6KA4(Kin.Dom.2-C-term) (Homo sapiens, UniProt O75676); experiment: KINOMEscan; assay type: binding
# T21 construct: hRPS6KA4(Kin.Dom.2-C-term); purchased DiscoverX (KINOMEscan platform)
# hMKNK1 = target: T22, hMKNK1 (Homo sapiens, UniProt Q9BUB5); experiment: KINOMEscan; assay type: binding
# T22 construct: purchased DiscoverX
# hHIPK3 = target: T23, hHIPK3 (Homo sapiens, UniProt Q9H422); experiment: KINOMEscan; assay type: binding
# T23 construct: purchased DiscoverX
# hSRPK1 = target: T24, hSRPK1 (Homo sapiens, UniProt Q96SB4); experiment: KINOMEscan; assay type: binding
# T24 construct: purchased DiscoverX (KINOMEscan platform)
# hCAMK1D = target: T25, hCAMK1D (Homo sapiens, UniProt Q8IU85); experiment: KINOMEscan; assay type: binding
# T25 construct: purchased DiscoverX
# hADCK3 = target: T26, hADCK3 (Homo sapiens, UniProt Q8NI60); experiment: KINOMEscan; assay type: binding
# T26 construct: purchased DiscoverX
# CYP2C9 = target: T27, CYP2C9 (Homo sapiens, UniProt P11712); experiment: Cytochrome p450 inhibition (Eurofins-CEREP); assay type: in vitro ADME
# T27 construct: Eurofins-CEREP
# hRIPK1 = target: T28, hRIPK1 (Homo sapiens, UniProt Q13546); experiment: KINOMEscan; assay type: binding
# T28 construct: purchased DiscoverX (KINOMEscan platform)
# hACVR1 = target: T29, hACVR1 (Homo sapiens, UniProt Q04771); experiment: KINOMEscan; assay type: binding
# T29 construct: purchased DiscoverX (KINOMEscan platform)
# hFLT3-autoinhibited = target: T30, hFLT3-autoinhibited (Homo sapiens, UniProt P36888); experiment: KINOMEscan; assay type: binding
# T30 construct: purchased DiscoverX
# hDAPK3 = target: T31, hDAPK3 (Homo sapiens, UniProt O43293); experiment: KINOMEscan; assay type: binding
# T31 construct: purchased DiscoverX (KINOMEscan platform)
# hPPARα = target: T32, hPPARα (Homo sapiens, UniProt Q07869); experiment: Nuclear hormone receptor assay (Eurofins-CEREP); settings: read-out: Relative IC50
# T32 construct: Eurofins-CEREP
# hBMPR1B = target: T33, hBMPR1B (Homo sapiens, UniProt O00238); experiment: KINOMEscan; assay type: binding
# T33 construct: purchased DiscoverX
# hADRβ2 = hADRβ2 (Homo sapiens, UniProt P07550); experiment: cAMP Potentiation (Eurofins-CEREP); settings: @ 10 μM
# hADRβ2, sequence (P07550 whole entry): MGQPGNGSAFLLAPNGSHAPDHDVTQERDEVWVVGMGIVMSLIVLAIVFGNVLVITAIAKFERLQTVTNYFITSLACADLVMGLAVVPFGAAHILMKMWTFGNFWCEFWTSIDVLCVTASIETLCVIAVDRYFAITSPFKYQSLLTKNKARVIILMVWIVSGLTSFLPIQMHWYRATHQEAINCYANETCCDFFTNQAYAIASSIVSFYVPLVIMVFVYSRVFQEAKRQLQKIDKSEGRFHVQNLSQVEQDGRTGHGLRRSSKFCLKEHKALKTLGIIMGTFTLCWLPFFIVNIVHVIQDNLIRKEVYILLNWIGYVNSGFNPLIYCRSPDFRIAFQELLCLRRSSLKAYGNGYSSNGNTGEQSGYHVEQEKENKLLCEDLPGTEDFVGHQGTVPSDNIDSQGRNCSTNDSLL
# hKIT(D816H) = target: T34, hKIT(D816H) (Homo sapiens, UniProt P10721, D816H); experiment: KINOMEscan; assay type: binding
# T34 construct: purchased DiscoverX (KINOMEscan panel)
# hFLT3(N841I) = target: T35, hFLT3(N841I) (Homo sapiens, UniProt P36888, N841I); experiment: KINOMEscan; assay type: binding
# T35 construct: purchased DiscoverX
# hMINK = target: T36, hMINK (Homo sapiens, UniProt Q8N4C8); experiment: KINOMEscan; assay type: binding
# T36 construct: purchased DiscoverX
# hROS1 = target: T37, hROS1 (Homo sapiens, UniProt P08922); experiment: KINOMEscan; assay type: binding
# T37 construct: purchased DiscoverX (KINOMEscan platform)
# T37 sequence (P08922 28-2347): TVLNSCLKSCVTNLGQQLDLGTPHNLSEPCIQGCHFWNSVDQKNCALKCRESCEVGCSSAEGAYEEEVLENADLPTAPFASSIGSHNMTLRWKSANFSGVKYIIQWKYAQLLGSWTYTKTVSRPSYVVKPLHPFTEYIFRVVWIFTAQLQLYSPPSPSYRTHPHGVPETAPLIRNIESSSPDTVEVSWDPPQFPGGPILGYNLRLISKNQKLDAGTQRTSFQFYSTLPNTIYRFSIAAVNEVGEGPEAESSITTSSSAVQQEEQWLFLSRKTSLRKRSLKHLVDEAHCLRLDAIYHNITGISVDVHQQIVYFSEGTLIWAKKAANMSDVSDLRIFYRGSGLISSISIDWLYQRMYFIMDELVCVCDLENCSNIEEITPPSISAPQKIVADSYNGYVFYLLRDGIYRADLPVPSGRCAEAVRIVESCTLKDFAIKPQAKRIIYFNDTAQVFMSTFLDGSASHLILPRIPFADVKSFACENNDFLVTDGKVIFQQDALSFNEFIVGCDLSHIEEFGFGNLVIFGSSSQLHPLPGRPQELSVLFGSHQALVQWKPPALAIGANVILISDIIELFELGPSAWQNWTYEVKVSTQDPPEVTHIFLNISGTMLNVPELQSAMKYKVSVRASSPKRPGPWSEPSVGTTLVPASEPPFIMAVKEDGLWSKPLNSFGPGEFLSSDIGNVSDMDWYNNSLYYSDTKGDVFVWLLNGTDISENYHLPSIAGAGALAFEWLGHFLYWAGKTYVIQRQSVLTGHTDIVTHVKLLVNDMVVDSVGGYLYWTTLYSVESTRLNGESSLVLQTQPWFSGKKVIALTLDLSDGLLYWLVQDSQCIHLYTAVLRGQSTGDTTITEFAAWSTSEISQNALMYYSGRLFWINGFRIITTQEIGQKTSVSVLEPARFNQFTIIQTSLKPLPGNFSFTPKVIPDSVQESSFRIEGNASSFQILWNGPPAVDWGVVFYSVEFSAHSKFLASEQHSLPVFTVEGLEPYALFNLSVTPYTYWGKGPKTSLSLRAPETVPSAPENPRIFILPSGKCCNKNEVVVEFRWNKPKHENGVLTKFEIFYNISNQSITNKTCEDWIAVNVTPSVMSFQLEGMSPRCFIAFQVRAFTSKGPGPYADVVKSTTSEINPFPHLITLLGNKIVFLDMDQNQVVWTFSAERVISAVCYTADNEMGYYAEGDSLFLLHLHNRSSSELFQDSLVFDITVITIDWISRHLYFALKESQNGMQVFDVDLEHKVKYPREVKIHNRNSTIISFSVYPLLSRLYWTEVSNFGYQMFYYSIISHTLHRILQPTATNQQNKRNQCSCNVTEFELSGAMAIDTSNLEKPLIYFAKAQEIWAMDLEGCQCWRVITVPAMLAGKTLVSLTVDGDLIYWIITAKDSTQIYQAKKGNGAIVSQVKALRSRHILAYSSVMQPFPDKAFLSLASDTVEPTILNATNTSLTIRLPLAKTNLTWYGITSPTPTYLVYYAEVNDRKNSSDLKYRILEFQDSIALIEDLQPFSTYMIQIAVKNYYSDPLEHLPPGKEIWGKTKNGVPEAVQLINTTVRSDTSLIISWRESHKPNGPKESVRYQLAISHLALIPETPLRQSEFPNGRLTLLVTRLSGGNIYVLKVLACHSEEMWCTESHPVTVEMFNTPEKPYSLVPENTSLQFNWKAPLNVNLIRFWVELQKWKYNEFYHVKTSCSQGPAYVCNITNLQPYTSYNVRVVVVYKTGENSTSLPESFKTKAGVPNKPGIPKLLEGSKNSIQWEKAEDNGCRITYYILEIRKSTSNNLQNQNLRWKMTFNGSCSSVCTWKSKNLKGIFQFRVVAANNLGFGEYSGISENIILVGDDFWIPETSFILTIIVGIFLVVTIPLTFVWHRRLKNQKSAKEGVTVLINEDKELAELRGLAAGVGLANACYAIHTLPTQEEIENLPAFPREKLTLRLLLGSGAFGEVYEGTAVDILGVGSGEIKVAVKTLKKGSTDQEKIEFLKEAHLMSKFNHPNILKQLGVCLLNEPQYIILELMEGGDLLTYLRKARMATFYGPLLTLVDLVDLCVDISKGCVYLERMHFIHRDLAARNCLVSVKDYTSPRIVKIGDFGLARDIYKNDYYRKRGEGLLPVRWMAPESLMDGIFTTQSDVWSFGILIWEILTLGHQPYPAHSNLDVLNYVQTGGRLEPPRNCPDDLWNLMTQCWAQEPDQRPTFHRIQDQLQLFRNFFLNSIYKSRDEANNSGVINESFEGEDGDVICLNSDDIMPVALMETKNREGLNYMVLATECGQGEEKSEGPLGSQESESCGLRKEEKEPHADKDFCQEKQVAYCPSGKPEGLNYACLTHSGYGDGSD
# hCSNK1A1 = target: T38, hCSNK1A1 (Homo sapiens, UniProt P48729); experiment: KINOMEscan; assay type: binding
# T38 construct: purchased DiscoverX (KINOMEscan platform)
# T38 sequence (P48729 whole entry): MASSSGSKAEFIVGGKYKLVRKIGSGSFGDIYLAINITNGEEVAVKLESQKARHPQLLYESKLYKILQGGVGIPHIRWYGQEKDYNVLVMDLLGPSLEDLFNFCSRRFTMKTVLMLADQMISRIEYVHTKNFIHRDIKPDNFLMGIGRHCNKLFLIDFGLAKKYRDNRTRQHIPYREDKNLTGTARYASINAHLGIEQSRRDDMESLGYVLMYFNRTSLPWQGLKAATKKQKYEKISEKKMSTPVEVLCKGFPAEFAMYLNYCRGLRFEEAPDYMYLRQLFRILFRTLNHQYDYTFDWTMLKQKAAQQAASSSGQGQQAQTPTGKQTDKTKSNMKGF
# hTBK1 = target: T39, hTBK1 (Homo sapiens, UniProt Q9UHD2); experiment: KINOMEscan; assay type: binding
# T39 construct: purchased DiscoverX
compound,measurement,setting,value
"Cc1cn(CCN2CCN(c3ccccc3-c3cc(C#N)cc(C(=O)NCCCN4CCCC4)c3)CC2)c2ccccc12 [LLY-507, 3-cyano-5-{2-[4-[2-(3-methylindol-1-yl)ethyl]piperazin-1-yl]-phenyl}-N-[(3-pyrrolidin-1-yl)propyl]benzamide]",IC50,hPYK2,> 20 µM
same,IC50,hCAMK2B,> 20 µM
same,"% Effect, Stimulation",hH1,-2.8%
same,IC50,hINSR,> 20 µM
same,IC50,hTGFBR1,> 20 µM
same,IC50,hSIK2,> 20 µM
same,IC50,hFLT3(K663Q),> 20 µM
same,IC50,hERBB3,> 20 µM
same,IC50,hLOK,> 20 µM
same,IC50,hCAMKK2,> 20 µM
same,IC50,hITK,> 20 µM
same,IC50,hALK,> 20 µM
same,IC50,hRARα,> 10 µM
same,IC50,hACVRL1,> 20 µM
same,IC50,hLXRβ,> 10 µM
same,IC50,[1],> 20 µM
same,IC50,hMAP3K15,> 20 µM
same,IC50,hABL1(Q252H),> 20 µM
same,IC50,hTRPM6,> 20 µM
same,IC50,hERK8,> 20 µM
same,IC50,hRIPK5,> 20 µM
same,IC50,[2],> 20 µM
same,IC50,hMKNK1,> 20 µM
same,IC50,hHIPK3,> 20 µM
same,IC50,hSRPK1,> 20 µM
same,IC50,hCAMK1D,> 20 µM
same,IC50,hADCK3,> 20 µM
same,% inhibition @ 10 μM,CYP2C9,34.2%
same,IC50,hRIPK1,> 20 µM
same,IC50,hACVR1,> 20 µM
same,IC50,hFLT3-autoinhibited,> 20 µM
same,IC50,hDAPK3,> 20 µM
same,IC50,hPPARα,> 10 µM
same,IC50,hBMPR1B,> 20 µM
same,"% Effect, Potentiation",hADRβ2,-27.2%
same,IC50,hKIT(D816H),> 20 µM
same,IC50,hFLT3(N841I),> 20 µM
same,IC50,hMINK,> 20 µM
same,IC50,hROS1,> 20 µM
same,IC50,hCSNK1A1,> 20 µM
same,IC50,hTBK1,> 20 µM
